From patent US7993928B2, “Detection of blood plasma Danshensu and Salvianolic acid B dissipating blood stasis botanical” (Shanghai Sundise, priority 2007, dated 2011)

Conditions: mammal plasma collected 0.5 hours after being drenched with strengthening body resistance and dissipating blood stasis botanical (FZHY); solid-phase extraction, UPLC/MS negative ion mode
Protocol: Method of pretreating mammalian blood plasma sample: Collect mammal plasma containing drugs 0.5 hours after being administered the strengthening body resistance and dissipating blood stasis botanical, misce bene after adding 2-5 mol/L phosphoric acid, and the volume ratio between the blood plasma and phosphoric acid is 1:2-3, applying the blood plasma with drugs to small column of WATERS OASIS HLB (a type of chromatographic column) activated by methanol and water; after leaching with water and 80-100% methanol and eluting with 0.2-1% ammonia-methanol, drying and enriching the eluent under the condition of 25-30° C., and redissolving the eluent with mobile phase.
UPLC/MS detection method: The analysis conditions of the applied UPLC/MS method in this invention, UPLC condition: chromatographic column: ACQUITY HPLC BEH C18 (a type of chromatographic column), 2.1×100 mm, mobile phase A: Water-Acetonitrile-Formic acid 95:5:0.1 v/v/v, mobile phase B: Acetonitrile-Formic acid 100:0.1 v/v, eluting in accordance with the following gradient: […]

SMILES	Detection in the blood plasma
O=C(O)[C@H](O)Cc1ccc(O)c(O)c1 [Danshensu]	can be detected
O=C(/C=C/c1ccc(O)c2c1[C@H](C(=O)O[C@H](Cc1ccc(O)c(O)c1)C(=O)O)[C@@H](c1ccc(O)c(O)c1)O2)O[C@H](Cc1ccc(O)c(O)c1)C(=O)O [Salvianolic acid B]	can be detected
